Results reported in patent publication US5104869A, “Renin inhibitors” (American Cyanamid Company, priority 1990, dated 1992).

Biological target: T1, human kidney renin (Homo sapiens, UniProt P00797)
T1 construct: Human renin was prepared from human kidney; from tissue; host or cells: human kidney
T1 sequence (P00797 67-406): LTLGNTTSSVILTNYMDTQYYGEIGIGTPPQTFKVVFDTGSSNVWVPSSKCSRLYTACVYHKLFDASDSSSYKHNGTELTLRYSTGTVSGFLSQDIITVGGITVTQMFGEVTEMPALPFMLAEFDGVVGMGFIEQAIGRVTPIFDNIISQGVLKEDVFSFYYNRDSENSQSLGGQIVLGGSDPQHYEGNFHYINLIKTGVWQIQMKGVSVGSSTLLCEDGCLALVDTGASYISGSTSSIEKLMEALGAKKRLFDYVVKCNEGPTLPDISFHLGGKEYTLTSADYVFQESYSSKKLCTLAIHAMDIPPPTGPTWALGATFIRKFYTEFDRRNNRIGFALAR
Experiment: Radioimmunoassay Screen for Renin Inhibitors (in vitro angiotensin I generation, quantitated by radioimmunoassay)
Type: biochemical
Settings: purified human plasma angiotensinogen, pH 6.0, one hour at 37° C., read-out: Renin Inhibiton IC50
Procedure: The in vitro method for the screening of anti-renin compounds involves, first, angiotensin I generation, and second, the quantitation of the angiotensin I produced by radioimmunoassay.
The incubation medium consisted of 20 μl of purified human plasma angiotensinogen (1); 10 μl of human kidney renin (2); 5 μl of phenylmethylsulfonyl fluoride; 10 μl of disodium EDTA (10 mM); 10 μl of antirenin compound (5×10^-3, 5×10^-4, 5×10^-5) in dimethylformamide, or ethanol and a suitable amount of maleate buffer (77 mM, pH 6.0) to make a final volume of 500 μl. The reaction mixture was incubated for one hour at 37° C. and the enzymatic reaction was stopped by placing the tube in ice-cold water. The angiotensin I generated during the incubation was measured by a radioimmunoassay plasma renin activity kit (Clinical Assays, Inc.).
The incubation medium consisted of either 100 μl aliquots of the above reaction mixture or a standard amount of angiotensin I; 1000 μl of phosphate buffer (100 mM, pH 7.6) and 100 μl of (^125 I)angiotensinin a gamma-coat, tube. After three hours of incubation at room temperature, the tubes were decanted, and the radioactivity of each tube was determined in a gamma counter. Duplicate determinations were performed for each incubation. The results were expressed in ng of angiotensin I generated per ml of generation medium per hour of incubation (ng/AI/ml/hr).
(1) The human plasma angiotensinogen derived from the blood of a person receiving oral contraceptive pills was purified by chromatography on a pepstatinaminohexyl-agarose column.
(2) Human renin was prepared from human kidney.

SMILES | IC50 [µM]
CC(C)C[C@H](NC(=O)[C@@H](CC(=O)N1CCOCC1)Cc1ccccc1)C(=O)N[C@@H](CC1CCCCC1)[C@@H](O)c1nccs1 | 80
O=C(N[C@@H](Cc1c[nH]cn1)C(=O)N[C@@H](CC1CCCCC1)[C@@H](O)c1nccs1)[C@@H](CC(=O)N1CCOCC1)Cc1ccccc1 | 15
CC(C)C[C@H](NC(=O)[C@@H](CC(=O)NC(C)(C)C)Cc1ccccc1)C(=O)N[C@@H](CC(C)C)[C@@H](O)c1nccs1 | 67
CC(C)C[C@H](NC(=O)[C@H](Cc1c[nH]cn1)NC(=O)[C@@H](CC(=O)NC(C)(C)C)Cc1ccccc1)[C@@H](O)c1nccs1 | 65
CC(C)C[C@H](NC(=O)[C@@H](CC(=O)OC(C)(C)C)Cc1cccc2ccccc12)C(=O)N[C@@H](CC(C)C)[C@@H](O)c1nccs1 | 0.55
CC(C)C[C@H](NC(=O)[C@@H](CC(=O)OC(C)(C)C)Cc1cccs1)C(=O)N[C@@H](CC(C)C)[C@@H](O)c1nccs1 | 100
CC(C)C[C@H](NC(=O)[C@@H](CC(=O)N1CCOCC1)Cc1cccc2ccccc12)C(=O)N[C@@H](CC(C)C)[C@@H](O)c1nccs1 | 0.25
CC(C)C[C@H](NC(=O)[C@@H](CC(=O)NCCc1ccccc1)Cc1cccc2ccccc12)C(=O)N[C@@H](CC(C)C)[C@@H](O)c1nccs1 | 0.73
COc1cc(C[C@H](CC(=O)N2CCOCC2)C(=O)N[C@@H](Cc2c[nH]cn2)C(=O)N[C@@H](CC(C)C)[C@@H](O)c2nccs2)cc(OC)c1OC | 2.8
CC(C)C[C@H](NC(=O)[C@@H](CC(=O)NCCCn1ccnc1)Cc1cccc2ccccc12)C(=O)N[C@@H](CC(C)C)[C@@H](O)c1nccs1 | 0.21
CC(C)C[C@H](NC(=O)[C@@H](CC(=O)N1CCN(C)CC1)Cc1cccc2ccccc12)C(=O)N[C@@H](CC(C)C)[C@@H](O)c1nccs1 | 0.44
COC(CNC(=O)C[C@@H](Cc1cccc2ccccc12)C(=O)N[C@@H](CC(C)C)C(=O)N[C@@H](CC(C)C)[C@@H](O)c1nccs1)OC | 0.41
O=C(N[C@@H](Cc1cnc[nH]1)C(=O)N[C@@H](CC1CCCCC1)[C@@H](O)c1ccccn1)[C@@H](CC(=O)N1CCOCC1)Cc1cccc2ccccc12 | 0.26
CC(C)C[C@H](NC(=O)[C@@H](CC(=O)OC(C)(C)C)Cc1cccc2ccccc12)C(=O)N[C@@H](CC1CCCCC1)[C@@H](O)c1ccccn1 | 0.16
CC(C)C[C@H](NC(=O)[C@@H](CC(=O)N1CCOCC1)Cc1cccc2ccccc12)C(=O)N[C@@H](CC1CCCCC1)[C@@H](O)c1ccccn1 | 0.077
CC(C)C[C@H](NC(=O)[C@@H](CC(=O)O)Cc1cccc2ccccc12)C(=O)N[C@@H](CC(C)C)[C@@H](O)c1nccs1 | 0.55
CC(C)C[C@H](NC(=O)[C@@H](CC(=O)NCCN1CCOCC1)Cc1cccc2ccccc12)C(=O)N[C@@H](CC(C)C)[C@@H](O)c1nccs1 | 0.4
CC(C)C[C@H](NC(=O)[C@@H](CC(=O)NCCCN1CCOCC1)Cc1cccc2ccccc12)C(=O)N[C@@H](CC(C)C)[C@@H](O)c1nccs1 | 0.44
CC(C)C[C@H](NC(=O)[C@@H](CC(=O)NCCc1cccn1C)Cc1cccc2ccccc12)C(=O)N[C@@H](CC(C)C)[C@@H](O)c1nccs1 | 0.033
CC(C)C[C@H](NC(=O)[C@@H](CC(=O)NCc1cccnc1)Cc1cccc2ccccc12)C(=O)N[C@@H](CC(C)C)[C@@H](O)c1nccs1 | 0.17
CC(C)C[C@H](NC(=O)[C@@H](CC(=O)NCc1ccccn1)Cc1cccc2ccccc12)C(=O)N[C@@H](CC(C)C)[C@@H](O)c1nccs1 | 0.12
CC(C)C[C@H](NC(=O)[C@@H](CC(=O)NCCCN1CCCC1=O)Cc1cccc2ccccc12)C(=O)N[C@@H](CC(C)C)[C@@H](O)c1nccs1 | 0.074
CC(C)C[C@H](NC(=O)[C@@H](CC(=O)NCCOc1ccccn1)Cc1cccc2ccccc12)C(=O)N[C@@H](CC(C)C)[C@@H](O)c1nccs1 | 0.044
CC(C)C[C@H](NC(=O)[C@@H](CC(=O)NCCCCn1ccnc1)Cc1cccc2ccccc12)C(=O)N[C@@H](CC(C)C)[C@@H](O)c1nccs1 | 0.093
CC(C)C[C@H](NC(=O)[C@@H](CC(=O)O)Cc1cccc2ccccc12)C(=O)N[C@@H](CC1CCCCC1)[C@@H](O)c1ccccn1 | 3.8
CC(C)C[C@H](NC(=O)[C@@H](CC(=O)NCCc1ccccn1)Cc1cccc2ccccc12)C(=O)N[C@@H](CC(C)C)[C@@H](O)c1nccs1 | 0.11

SMILES | IC50 [µM]
CC(C)C[C@H](NC(=O)[C@@H](CC(=O)NCCN1CCCCC1)Cc1cccc2ccccc12)C(=O)N[C@@H](CC(C)C)[C@@H](O)c1nccs1 | 0.65
CC(C)C[C@H](NC(=O)[C@@H](CC(=O)NCCN1CCCC1)Cc1cccc2ccccc12)C(=O)N[C@@H](CC(C)C)[C@@H](O)c1nccs1 | 0.74
CC(C)(C)NC(=O)C[C@@H](Cc1cccc2ccccc12)C(=O)N[C@@H](Cc1cnc[nH]1)C(=O)N[C@@H](CC1CCCCC1)[C@@H](O)c1nccs1 | 7.1
CC(C)C[C@H](NC(=O)[C@@H](CC(=O)NCCOc1ccccn1)Cc1cccc2ccccc12)C(=O)N[C@@H](CC1CCCCC1)[C@@H](O)c1ccccn1 | 0.17
CC(C)C[C@H](NC(=O)[C@@H](CC(=O)NCCCN1CCCC1=O)Cc1ccccc1)C(=O)N[C@@H](CC1CCCCC1)[C@@H](O)c1ccccn1 | 0.13
COc1cc(C[C@H](CC(=O)O)C(=O)N[C@@H](CC(C)C)C(=O)N[C@@H](CC(C)C)[C@@H](O)c2nccs2)cc(OC)c1OC | 6
CC(C)(C)OC(=O)C[C@@H](Cc1cccc2ccccc12)C(=O)N[C@@H](Cc1cnc[nH]1)C(=O)N[C@@H](CC1CCCCC1)[C@@H](O)c1ccccn1 | 4.8
CC(C)(C)OC(=O)C[C@@H](Cc1cccc2ccccc12)C(=O)N[C@@H](Cc1cnc[nH]1)C(=O)N[C@@H](CC1CCCCC1)[C@@H](O)c1nccs1 | 0.3
O=C(N[C@@H](Cc1cnc[nH]1)C(=O)N[C@@H](CC1CCCCC1)[C@@H](O)c1nccs1)[C@@H](CC(=O)N1CCOCC1)Cc1cccc2ccccc12 | 0.035
Cn1cccc1CCNC(=O)C[C@@H](Cc1cccc2ccccc12)C(=O)N[C@@H](Cc1cnc[nH]1)C(=O)N[C@@H](CC1CCCCC1)[C@@H](O)c1nccs1 | 0.34
O=C(N[C@@H](Cc1cnc[nH]1)C(=O)N[C@@H](CC1CCCCC1)[C@@H](O)c1cccs1)[C@@H](CC(=O)N1CCOCC1)Cc1cccc2ccccc12 | 0.27
CC(C)C[C@H](NC(=O)[C@H](Cc1ccccc1)OC(=O)N1CCOCC1)C(=O)N[C@@H](CC1CCCCC1)[C@@H](O)c1ccccn1 | 0.77
CC(C)C[C@H](NC(=O)[C@H](Cc1ccccc1)OC(=O)N1CCOCC1)C(=O)N[C@@H](CC1CCCCC1)[C@@H](O)c1cccs1 | 0.27
CC(C)C[C@H](NC(=O)[C@H](Cc1ccccc1)OC(=O)N1CCSCC1)C(=O)N[C@@H](CC1CCCCC1)[C@@H](O)c1cccs1 | 0.5
CC(C)C[C@H](NC(=O)[C@H](Cc1ccccc1)OC(=O)N1CCSCC1)C(=O)N[C@@H](CC1CCCCC1)[C@@H](O)c1ccccn1 | 0.84
CC(C)C[C@H](NC(=O)[C@H](Cc1ccccc1)OC(=O)N1CCOCC1)C(=O)N[C@@H](CC1CCCCC1)[C@@H](O)c1ccco1 | 0.1
CC(C)C[C@H](NC(=O)[C@H](Cc1ccccc1)OC(=O)N1CCSCC1)C(=O)N[C@@H](CC1CCCCC1)[C@@H](O)c1ccco1 | 0.047
CC(C)C[C@H](NC(=O)[C@@H](CC(=O)N1CCOCC1)Cc1cccc2ccccc12)C(=O)N[C@@H](CC1CCCCC1)[C@@H](O)c1ccco1 | 0.0088
CC(C)C[C@H](NC(=O)[C@H](Cc1ccccc1)OC(=O)N1CCOCC1)C(=O)N[C@@H](CC1CCCCC1)[C@@H](O)c1nccs1 | 0.011
O=C(N[C@@H](Cc1cnc[nH]1)C(=O)N[C@@H](CC1CCCCC1)[C@@H](O)c1ccco1)[C@@H](CC(=O)N1CCOCC1)Cc1cccc2ccccc12 | 0.0049
CC(=O)N1CCN(C(=O)O[C@@H](Cc2ccccc2)C(=O)N[C@@H](CC(C)C)C(=O)N[C@@H](CC2CCCCC2)[C@@H](O)c2ccco2)CC1 | 0.042
COCCNC(=O)O[C@@H](Cc1ccccc1)C(=O)N[C@@H](CC(C)C)C(=O)N[C@@H](CC1CCCCC1)[C@@H](O)c1ccco1 | 1.7
CC(C)C[C@H](NC(=O)[C@H](Cc1ccccc1)OC(=O)N1CCC2(CC1)OCCO2)C(=O)N[C@@H](CC1CCCCC1)[C@@H](O)c1ccco1 | 0.21
CC(C)C[C@H](NC(=O)[C@H](CC1CCCCC1)OC(=O)N1CCOCC1)C(=O)N[C@@H](CC1CCCCC1)[C@@H](O)c1ccco1 | 0.18
CC(C)C[C@H](NC(=O)[C@H](Cc1ccccc1)OC(=O)N1CCNC(=O)C1)C(=O)N[C@@H](CC1CCCCC1)[C@@H](O)c1ccco1 | 0.00019
CC(C)C[C@H](NC(=O)[C@H](Cc1ccccc1)OC(=O)N1CCC(=O)CC1)C(=O)N[C@@H](CC1CCCCC1)[C@@H](O)c1ccco1 | 0.058
